# Assay results: publication PMC11050532, “The Inhibition Activity of Natural Methoxyflavonoid from Inula britannica on Soluble Epoxide Hydrolase and NO Production in RAW264.7 Cells” (International Journal of Molecular Sciences, 2024)
# Tests used:
# sEH [1] = molecular target: T1, sEH (Homo sapiens, UniProt P34913); experiment: sEH activity assay (PHOME fluorescence); type: biochemical; details: triplicate, six concentrations
# T1 construct: purchased Cayman Chemical 10011669
# T1 sequence (P34913 1-555): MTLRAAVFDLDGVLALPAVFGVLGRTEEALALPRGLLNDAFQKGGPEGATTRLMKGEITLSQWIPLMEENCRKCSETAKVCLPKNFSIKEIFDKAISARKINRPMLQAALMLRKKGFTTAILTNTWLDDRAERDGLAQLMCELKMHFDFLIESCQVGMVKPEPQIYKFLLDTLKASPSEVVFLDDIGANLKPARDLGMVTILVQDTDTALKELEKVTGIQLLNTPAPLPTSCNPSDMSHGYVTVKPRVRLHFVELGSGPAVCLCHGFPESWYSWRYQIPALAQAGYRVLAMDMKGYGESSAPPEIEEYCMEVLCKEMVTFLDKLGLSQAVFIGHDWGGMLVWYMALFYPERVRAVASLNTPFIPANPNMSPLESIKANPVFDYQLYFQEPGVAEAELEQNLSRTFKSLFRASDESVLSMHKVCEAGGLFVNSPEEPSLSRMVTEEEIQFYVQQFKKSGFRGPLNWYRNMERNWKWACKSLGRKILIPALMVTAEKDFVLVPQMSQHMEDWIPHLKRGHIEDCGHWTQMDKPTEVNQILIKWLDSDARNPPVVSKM
# Description: ^1H (400 MHz) and ^13C (100 MHz) nuclear magnetic resonance (NMR) spectra were obtained using a Bruker DRX-400 spectrometer (Bruker, Billerica, MA, USA) with tetramethylsilane as the internal standard. Thin-layer chromatography (TLC) was performed on pre-coated silica gel 60 F254 (0.25 mm; Merck, Rahway, NJ, USA) and reversed-phase-18 F254s plates (0.25 mm; Merck). Column chromatography was performed using a silica gel (60 A, 70–230, or 230–400 mesh ASTM; Merck, Germany) and reversed-phase silica gel (ODS-A, S-75 μm; YMC, Kyoto, Japan). […] Greiss reagent and lipopolysaccharide (LPS) were purchased from Sigma-Aldrich (St. Louis, MO, USA). Dulbecco’s modified Eagle medium (DMEM) and fetal bovine serum were purchased from Gibco (Grand Island, NY, USA). Penicillin/streptomycin antibiotics came from Invitrogen (Carlsbad, CA, USA).
# Inhibitor efficiency (%) was calculated as shown in Equation (1):Inhibitory activity = 100 − [(I4_0 − I0)/(M40 − M0)] × 100(1) where I40 and M40 are the fluorescence of the candidate inhibitor (I) and methanol (M) after 40 min, and I0 and M0 are the fluorescence of I and M at 0 min, respectively.
# [2] = system: NO production by poly(I:C)-induced RAW264.7 cells; experiment: Nitric oxide assay (Griess method); type: cell-based; details: for NO production: 10 µM compound, induced control 19.0 ± 1.5 µM, unstimulated ~0.91 µM; for inhibition at 10 µM: Mus musculus, RAW264.7, poly(I:C)-stimulated cells
# Description: The activity of compounds 1–5 with respect to NO production by poly(I:C)-induced RAW264.7 cells was evaluated by measuring the amount of nitrite that accumulated in the culture medium using the Griess method. When tested at a concentration 10 µM, none of the compounds affected the viability of RAW264.7 cells. In unstimulated RAW264.7 cells, NO production was ~ 0.91 µM, whereas in poly(I:C)-induced cells, it was 19.0 ± 1.5 µM. In induced cells simultaneously treated with compounds 1–5 at a concentration of 10 µM, NO production was 12.5 ± 0.1, 9.6 ± 0.2, 4.0 ± 0.2, 7.0 ± 0.3, and 13.9 ± 0.8 µM, respectively (Figure 5).
# RAW264.7 macrophages were initially cultured as described above and then pretreated for 2 h with 10 µM of the candidate inhibitor. Then, they were stimulated with 1 µg LPS /mL for 24 h. Then, 100 µL each of supernatant and Griess reagent were added to the plate. The absorbance at 450 nm was measured as described.
# sEH [3] = molecular target: T1, sEH; experiment: sEH enzyme kinetics (Lineweaver–Burk and Dixon plots); type: biochemical; details: for Ki: calculated from the Dixon plot; for Binding Mode: substrate 3.1–50 µM, Lineweaver–Burk plot
# Description: Determinations of enzyme kinetics yield insights into the interactions between inhibitors and enzymes. In such studies, the changes in the initial velocity (v0) of the enzymatic reaction induced by the inhibitor depending on the substrate concentration are monitored. To investigate the effects of the five flavonoids (1–5) on sEH, a substrate concentration of 3.1–50 µM was used. […] The ki values calculated from the Dixon plot were 43.9, 19.8, 17.5, 63.5, and 68.7 µM, respectively (Figure 2G–K).
# In 96-well plates, 20 µL of isolated compounds […] in methanol was mixed with 100 µL of 25 mM Tris–HCl (pH 7.0) buffer containing 0.1% BSA, followed by adding 30 µL of 1.0 µg/mL sEH and then 50 µL of 40 μM PHOME. The reaction product was measured using a fluorescent photometer (excitation filter: 330 nm, emission filter: 465 nm).
# sEH [4] = details: cited from earlier work; for inhibition mode: sEH
# arthritic rats = system: arthritic rats; parameters: method as in PMID 27177082; details: cited from earlier work
# [5] = system: LPS-activated THP-1 cells; parameters: method as in PMID 27177082; details: cited from earlier work
# [6] = parameters: method as in PMID 23020295; details: cited from earlier work
# [7] = system: mice with angiotensin-II-induced hypertension; parameters: method as in PMID 15699457; details: cited from earlier work
IC50 (sEH [1]),Ki (sEH [3]),Binding Mode (sEH [3]),SMILES,NO production [2],other results
62.8 ± 1.8 µM,68.7 µM,non-competitive,"COc1cc(-c2oc3cc(O)cc(O)c3c(=O)c2OC2OC(CO)C(O)C(O)C2O)ccc1O (stereo not shown) [Compound 5, isorhametin-3-O-glucoside]",13.9 ± 0.8 µM,Binding Mode (sEH [3]; listed as isorhametin-3-O-glucoside): noncompetitive
–,–,–,C=C(C)[C@@H](O)[C@@H](O)C[C@@H](C)C1=C2CC[C@H]3[C@@]4(C)CCC(=O)C(C)(C)[C@@H]4CC[C@]3(C)[C@@]2(C)CC1 [11-deoxy-25-anhydroalisol E],–,sEH inhibition (in words) (sEH [4]): considerable inhibitory effects on sEH
12.1 ± 0.1 µM,17.5 µM,non-competitive,"COc1c(O)cc2oc(-c3ccc(O)c(O)c3)c(O)c(=O)c2c1O [Compound 3, patuletin]",4.0 ± 0.2 µM,inhibition at 10 µM [2]: > 50%; TNF-α and IL-1β levels (arthritic rats): decrease TNF-α and IL-1β levels; TNF-α and IL-1β levels [5]: decrease TNF-α and IL-1β levels; Binding Mode (sEH [3]; listed as patuletin): noncompetitive
42.6 ± 0.8 µM,43.9 µM,non-competitive,"COc1ccc(-c2oc3cc(OC)c(OC)c(O)c3c(=O)c2O)cc1O [Compound 1, eupatin]",12.5 ± 0.1 µM,Binding Mode (sEH [3]; listed as eupatin): noncompetitive
–,–,–,O=c1cc(-c2ccc(O)c(O)c2)oc2cc(O[C@@H]3O[C@H](CO)[C@@H](O)[C@H](O)[C@H]3O)cc(O)c12 [luteolin-7-O-glucopyranoside],–,inhibition mode (sEH [4]): non-competitive
–,–,–,COc1cc(-c2oc3cc(O[C@@H]4O[C@H](CO)[C@@H](O)[C@H](O)[C@H]4O)cc(O)c3c(=O)c2O)ccc1O [isorhamnetin-7-O-glucopyranoside],–,inhibition mode (sEH [4]): non-competitive
–,–,–,COc1cc(-c2cc(=O)c3c(O)cc(O)cc3o2)ccc1O [chrysoeriol],–,inhibition mode (sEH [4]): non-competitive
40.9 ± 0.6 µM,63.5 µM,non-competitive,"COc1c(O)cc2oc(-c3ccc(O)c(O)c3)cc(=O)c2c1O [Compound 4, nepetin]",7.0 ± 0.3 µM,inhibition at 10 µM [2]: > 50%; Binding Mode (sEH [3]; listed as nepetin): noncompetitive
–,–,–,O=c1c(O)c(-c2ccc(O)cc2)oc2cc(O)cc(O)c12 [kaempferol],–,sEH inhibition (in words) (sEH [4]): potent sEH inhibitors
–,–,–,O=c1c(O)c(-c2ccc(O)c(O)c2)oc2cc(O)cc(O)c12 [quercetin],–,sEH inhibition (in words) (sEH [4]): potent sEH inhibitors
–,–,–,"O=C(O)CCCCCCCCCCCNC(=O)NC12CC3CC(CC(C3)C1)C2 [AUDA, 12-(3-adamantan-1-yl-ureido) dodecanoic acid]",–,metabolism in vivo [6]: rapid metabolism in vivo; blood pressure [7]: effective for lowering blood pressure

SMILES,IC50 (sEH [1]),Ki (sEH [3]),Binding Mode (sEH [3]),NO production [2],other results
"COc1c(O)cc2oc(-c3ccc(O)cc3)cc(=O)c2c1O [Compound 2, hispidulin]",22.2 ± 0.3 µM,19.8 µM,non-competitive,9.6 ± 0.2 µM,Binding Mode (sEH [3]; listed as hispidulin): noncompetitive
